Source: patent US5385894A, “Disubstituted 6-aminoquinazolinones” (Merck & Co., Inc., priority 1994, dated 1995)

Assay: log P (Table 1)
Assay type: physicochemical

SMILES	logP	log P
CCc1nc2ccc(N(Cc3ccccc3)C(=O)c3ccco3)cc2c(=O)n1Cc1ccc(-c2ccccc2-c2nnn[nH]2)cc1 [Example 122]	3.9	
CCCc1nc2ccc(N(CC)C(=O)c3cccs3)cc2c(=O)n1Cc1ccc(-c2ccccc2-c2nnn[nH]2)cc1 [Example 124]	3.8	
CCCc1nc2ccc(N(CC)C(=O)c3ccco3)cc2c(=O)n1Cc1ccc(-c2ccccc2-c2nnn[nH]2)cc1 [Example 125]	3.5	
CCCc1nc2ccc(N(CCC)C(=O)c3ccccc3OC)cc2c(=O)n1Cc1ccc(-c2ccccc2-c2nnn[nH]2)cc1 [Example 127]	4.1	
CCCCCN(C(=O)c1ccc(OCc2ccccc2)cc1)c1ccc2nc(CCC)n(Cc3ccc(-c4ccccc4-c4nnn[nH]4)cc3)c(=O)c2c1 [Example 128]	> 5.7	
CCCc1nc2ccc(N(CCC)C(=O)c3ccc(OCc4ccccc4)cc3)cc2c(=O)n1Cc1ccc(-c2ccccc2-c2nnn[nH]2)cc1 [Example 129]	5.5	
CCCCCN(C(=O)c1ccc(O)cc1)c1ccc2nc(CCC)n(Cc3ccc(-c4ccccc4-c4nnn[nH]4)cc3)c(=O)c2c1 [Example 130]	4.7	
CCCc1nc2ccc(N(Cc3ccccc3)C(=O)CN3CCN(C(=O)OC(C)(C)C)CC3)cc2c(=O)n1Cc1ccc(-c2ccccc2-c2nnn[nH]2)cc1 [Example 133]	5.3	
CCCc1nc2ccc(N(Cc3ccccc3)C(=O)c3cccnc3)cc2c(=O)n1Cc1ccc(-c2ccccc2-c2nnn[nH]2)cc1 [Example 134]	3.7	
CCCc1nc2ccc(N(Cc3ccccn3)C(=O)Oc3ccccc3)cc2c(=O)n1Cc1ccc(-c2ccccc2-c2nn[nH]n2)cc1 [Example 135]	3.6	
CCCCCN(C(=O)c1ccc(OP(=O)(O)O)cc1)c1ccc2nc(CCC)n(Cc3ccc(-c4ccccc4-c4nn[nH]n4)cc3)c(=O)c2c1 [Example 146]	3.4	

The remaining lines, values ahead:

logP	log P	SMILES
5		CCCc1nc2ccc(N(Cc3ccccc3)C(=O)c3ccccc3OC)cc2c(=O)n1Cc1ccc(-c2ccccc2-c2nn[nH]n2)cc1 [Example 126]
3.8		CCCc1nc2ccc(N(CCC)C(=O)c3ccc(O)cc3)cc2c(=O)n1Cc1ccc(-c2ccccc2-c2nnn[nH]2)cc1 [Example 131]
3.6		CCCc1nc2ccc(N(Cc3ccccc3)C(=O)Cn3ccnc3)cc2c(=O)n1Cc1ccc(-c2ccccc2-c2nn[nH]n2)cc1 [Example 132]
3.8		CCCc1nc2ccc(N(Cc3ccccc3)C(=O)c3ccccn3)cc2c(=O)n1Cc1ccc(-c2ccccc2-c2nn[nH]n2)cc1 [Example 136]
3.4		CCCc1nc2ccc(N(Cc3ccccn3)C(=O)c3ccccc3)cc2c(=O)n1Cc1ccc(-c2ccccc2-c2nn[nH]n2)cc1 [Example 137]
3.4		CCCc1nc2ccc(N(Cc3ccncc3)C(=O)c3ccccc3)cc2c(=O)n1Cc1ccc(-c2ccccc2-c2nn[nH]n2)cc1 [Example 138]
3.7		CCCc1nc2ccc(N(Cc3ccccc3)C(=O)c3ccncc3)cc2c(=O)n1Cc1ccc(-c2ccccc2-c2nn[nH]n2)cc1 [Example 139]
	3.7	CCCc1nc2ccc(N(Cc3ccccc3)C(=O)c3ccccn3)cc2c(=O)n1Cc1ccc(-c2ccccc2-c2nn[nH]n2)cc1 [Example 140]
4.2		CCCCN(C(=O)c1ccc(O)cc1)c1ccc2nc(CCC)n(Cc3ccc(-c4ccccc4-c4nn[nH]n4)cc3)c(=O)c2c1 [Example 144]
2.7		CCCc1nc2ccc(N(Cc3ccccn3)C(=O)c3ccncc3)cc2c(=O)n1Cc1ccc(-c2ccccc2-c2nn[nH]n2)cc1 [Example 145]
4		CCCc1nc2ccc(N(Cc3ccccc3)C(=O)c3ccc(O)cc3)cc2c(=O)n1Cc1ccc(-c2ccccc2-c2nn[nH]n2)cc1 [Example 147]
3.2		CCCc1nc2ccc(N(Cc3ccccn3)C(=O)c3ccco3)cc2c(=O)n1Cc1ccc(-c2ccccc2-c2nn[nH]n2)cc1 [Example 148]
3.8		CCCOC(=O)N(Cc1ccncc1)c1ccc2nc(CCC)n(Cc3ccc(-c4ccccc4-c4nn[nH]n4)cc3)c(=O)c2c1 [Example 156]
